Test results published in patent publication US9944989B2, “Micrornas as new therapeutic targets for the prevention and/or treatment of retinopathy” (RUSH UNIVERSITY MEDICAL CENTER, priority 2010, dated 2018).

What was measured:
miRNAs in the vitreous = assay: miRNA expression profiling (TaqMan rodent miRNA microarray) of the vitreous of STZ-induced diabetic and normal control rats; set-up: species or system rat; conditions: two weeks after the onset of diabetes, average delta Ct
Description: Isolation of vitreous RNA from STZ-induced diabetic and normal control rats: 2 weeks after STZ-induced diabetes, 3 diabetic and 3 normal control rats were sacrificed and their eyeballs harvested. In cold PBS, the eyeballs were dissected to collect the vitreous bodies, the retinas and the lens, total RNA was prepared using the mirVana miRNA isolation kit (Ambion). The yield of total RNA from vitreous body was ˜764 ng and 1125 ng total RNA/vitreous of control and diabetic rats, respectively. […]
miRNA microarray assays and data analyses. […] Three independent sets of miRNA profiling were performed for each experimental condition Amplification data were created by the SDS2.3 program (Applied Biosystems) and further analyzed using RQ Manager software (Applied Biosystems) and StatMiner v. […] There were three replicate assays for each miRNA on the array. miRNAs with Ct<40 in at least two out of the three replicates were accepted as “detected”. […] Normalized expression level of each miRNA was calculated as DCt or ΔCt=Ct(miRNA)-Ct(snRNA U6). The average DCt from three microarray assays was calculated as the relative expression level of each miRNA. The differential expression of each miRNA from samples of diabetic rats and normal controls was calculated as: DDCt or Δ(ΔCt)=Ave DCt (diabetic)—Ave DCt (control). Fold of change was calculated as 2^−Δ(ΔCt). […]

NF-κB p65 = assay: NF-κB activation by immunofluorescence of p65 subunit in rat RECs; format: cell-based; conditions: IL-1β or TNFα 10 ng/ml, 30 minutes after treatment
Description: (§1) Rat REC culture and treatment with proinflammatory factors. Rat RECs—the Transgenic-inner Blood-Retinal Barrier (Tr-iBRB) cells were kindly provided by Drs. Tetsuya Terasaki, Tohoku University, and Ken-ichi Hosoya, University of Toyama, Japan. The Tr-iBRB cells were derived from RECs of transgenic rats harboring the temperature-sensitive SV40 large T-antigen (tsA58Tg rats). At 33° C., they are immortalized and proliferate because of the expression of large T-antigen. At 37° C., they stop proliferation due to loss of large T-antigen and differentiate into authentic retinal ECs, which have spindle fiber shapes, with typical endothelial and REC-specific markers and endothelial properties and REC-specific functions. iTr-iBRB cells were expanded at 33° C. on collagen-coated (50 μg/ml) plates in complete EC culture medium (DMEM with 70 mg/L benzylpenicillin potassium, 100 mg/L streptomycin sulfate, 10% heat-inactivated FBS and endothelial-cell growth factor (ECGF) (1:100, Sigma). Glucose concentration in the medium was 5.5 mM. Approximately 100,000 cells/60 mm plate were grown in complete medium at 37° C. for 48 hours. Cells were serum starved in DMEM+0.2% FBS for 16 hours before treatment of IL-1β (10 ng/ml, Sigma), TNFα (10 ng/ml, Sigma), or NF-κB inhibitor, Bay11-7082 (3 μM. Calbiochem) for 4 or 24 hours. Subsequently, the cells were harvested for total RNA, protein lysate preparation, or immunofluorescence.
Detection of NF-κB activation by immunofluorescence of p65 subunit. 30 min following cytokine treatment, cells were fixed with 4% paraformaldehyde for 20 min. After blocking with 10% normal donkey serum (NDS) in PBS for 1 hour at room temperature, cells were incubated with anti-p65 antibody (Santa Cruz) at 4° C. overnight. Cells were incubated in Alexa fluor-conjugated secondary antibody (1:400) in 3% NDS. Nuclei of the cells were labeled with Hoechst nuclear dye (1:500). Subsequently, the cells were observed under an Axioplan2 fluorescent microscope (Zeiss).

NF-κB [1] = assay: miR-146a expression (qRT-PCR) in rat RECs (TR-iBRB2) treated with IL-1β or TNFα, with or without Bay11-7082; format: cell-based; conditions: for miR-146a expression: rat RECs (TR-iBRB2), 10 ng/ml, four hours and 24 hours after treatment
Description: In diabetic retinas, hyperglycemia-induced increased production of ROS and proinflammatory cytokines work in concert to activate NF-κB in RECs. Both IL-1β and TNF-α are shown to activate NF-κB in RECs. Upregulation of miR-146a is a result of NF-κB activation. Rat RECs (the TR-iBRB2 cells) were treated with IL-1β (10 ng/ml) and TNF-α (10 ng/ml). […] The extent of upregulation of miR-146a was further increased from 4-hour to 24-hour treatments. […] It is noteworthy that there is a moderate, but significant increased expression of miR-146a by IL-1β in the presence of Bay11-7082, compared to non-treated negative controls.
Quantitative (q)RT-PCR. qRT-PCR analysis of miRNAs was performed using TaqMan microRNA Assays according to the manufacturer's protocol (Applied Biosystems). Approximately 8 ng of total RNA was used for each reaction. snRNA U6 was used for normalization control. qRT-PCR analysis on mRNAs of IRAK1, TRAF6, ICAM-1, and MCP-1 was performed using the QuantiTect Primer Assay with QuantiFast SYBR Green RT-PCR Kit (Qiagen, Valencia, Calif.) ˜10 ng total RNA was used in each reaction. 18S rRNA was amplified as normalization control. All data are expressed as mean±SEM. Student's t-test was used to determine significance (p<0.05).
as §1

NF-κB [2] = assay: Thrombin-induced miR-146a/b expression (qRT-PCR) in HRECs, with or without Bay11-7082; format: cell-based, human
Description: miR-146 is a NF-κB-responsive miRNA, and can be induced by IL-1R/TLR mediated NF-κB activation. GPCR-mediated NF-κB activation also induces the expression of miR-146.
Upregulation of miR-146a/b by thrombin treatment is a result of NF-κB activation.
(§2) Cell culture and treatment. Primary Human Retinal Endothelial Cells (HRECs) (Passage 3-6) and HEK293 cells were purchased from Applied Cell Biology Res Institute (Kirkland, Wash.) and American Type Culture Collection (ATCC), respectively. HRECs were maintained in EGM2-MV media with 5% of FBS (Lonza) in flasks coated with attachment factor (Invitrogen) or plates coated with fibronectin (Sigma). For thrombin treatment, HRECs were serum starved in EGM2-MV media with 1% FBS overnight, and then treated with thrombin (5 U/ml) (Sigma. Cat. T4393) for 5-8 hours, followed by RNA harvesting, leukocyte adhesion and other assays; for IL-1β treatment, after overnight serum starvation, HRECs was incubated with 10 ng/ml IL-1β (Sigma) for 4 hours. When NF-κB specific inhibitor Bay11-7082 was used, HRECs was incubated with Bay11-7082 (3 μM) (Sigma) for 30 minutes prior to treatment with either thrombin or IL-1β.
(§3) RNA preparation and quantitative RT-PCR. Total RNA was prepared using miRVana miRNA isolation kit (Ambion) (Kovacs et al., 2011). qRT-PCR of miRNAs was performed using TaqMan microRNA Assays (Applied Biosystems), with snRNA U6 as normalization control. qRT-PCR of mRNAs of was performed using QuantiTect Primer Assays and QuantiFast SYBR Green RT-PCR Kit (Qiagen), with 18s rRNA as normalization control. Two tailed t test was used to determine significance of differences.

[3] = system: human retinal endothelial cells (HRECs); assay: Transendothelial electrical resistance (TEER) assay in HRECs; format: cell-based
Description: Transendothelial electrical resistance assay: ECs are grown as a monolayer on small gold electrodes. The transendothelial electrical resistance, which reflects endothelial barrier function and permeability, is measured using the Electric Cell-Substrate Impedance Sensor (ECIS) system.
Transendothelial electrical resistance (TEER) assay. HRECs were plated and grew as a monolayer on fibronectin-coated Electric Cell-Substrate Impedance Sensor (ECIS) electrode arrays (Applied Biophysics). 24 hours after transfection with miR-146a mimics, or negative control oligo duplex with scrambled sequences, the cells were treated with IL-1β (10 ng/ml). TEER was recorded for 20 hours before and 24 hours after addition of IL-1β using the ECIS system (Applied Biophysics) (Qiao et al., 2003, 2006; Lum et al., 2003, 2001). When Bay11-7082 was used, HRECs was incubated with Bay11-7082 ([…]) (Sigma) for 30 minutes prior to IL-1β treatment.

HRECs = assay: Leukocyte adhesion to HRECs; format: cell-based, human; conditions: scrambled control-treated HRECs, thrombin treatment
Description: Leukocyte adhesion to HRECs. Leukocyte adhesion assays were performed (Huang et al., 2007; O'Donnell, 2011) with minor modifications. Briefly, blood from healthy human volunteers was collected according to a approved IRB protocol to isolate leukocytes. Leukocytes were labeled with 5 μM Calcein/acetomethoxy (AM) (Invitrogen). HRECs were transfected with miR-146a mimics or negative control oligo duplex with scrambled sequences for 48 hours before thrombin treatment (5 U/ml). Eight hours after thrombin treatment, 10^5 calcein-labeled leukocytes were added onto the HREC monolayer and incubated for 2 hours at 37 C. Subsequently, the cells were gently rinsed with PBS to wash off leukocytes unattached to HRECs; the number of Calcein-AM labeled neutrophils attached to HRECs were counted by fluorescence microscopy. In addition, the fluorescence from the adherent leukocytes on HRECs was measured with a Cytofluor plate reader (PreSeptive Biosystems).

NF-κB activation = assay: Thrombin-induced NF-κB downstream genes (ICAM-1, VCAM-1, MCP1) by qRT-PCR in HRECs; format: cell-based, human; conditions: thrombin treatment
Description: Thrombin-dependent NF-κB activation is mediated by the CARD10-Bc110-MALT1 signalosome. If miR-146 targets CARD10, one of the key components of the signalosome of the GPCR-mediated NF-κB activation pathway, miR-146 should have an inhibitory effect on GPCR-mediated NF-κB activation in HRECs. HRECs were transfected with miR-146a mimic or negative control oligos with scrambled sequences; 24 hour after the transfection, the cells were treated with thrombin.
To determine whether miR-146's inhibition on thrombin-mediated NF-κB activation is mediated by its repression on CARD10, HRECs were transfected with human CARD10-expressing constructs (Genecopoeia) before miR-146a mimic transfection and thrombin treatment.
as §2
miR-146a mimic, anti-miR-146a and plasmid transfection. […]
as §3, with “Two tailed t test was used to determine significance of differences.” left out

[4] = Bay11-7082 3 μM for 30 minutes prior to thrombin
[5] = HRECs treated with scrambled oligo

With “mmu-miR-30c (UGUAAACAUCCUACACUCUCAGC; chemistry not fully specified)” as the compound, how does the “AVE DCt (STZ)” value (miRNAs in the vitreous) read?
The value was 2.37.

What does the source list for TNF-α?
NF-κB activation (nuclear translocation of p65) (NF-κB p65): activated NF-κb; miR-146a expression (NF-κB [1]): significantly upregulated

For `Cc1ccc(S(=O)(=O)/C=C/C#N)cc1` [Bay11-7082], which “NF-κB activation (nuclear translocation of p65)” value (NF-κB p65) is on record?
The value was “failed to activate NF-κB”.

And the “inhibition of thrombin-induced miR-146b upregulation” value (NF-κB [2]; [4])?
The value was “at least 33%”.

And the “thrombin-induced upregulation of miR-146a” value (NF-κB [2]; [4])?
The value was “completely blocked”.

What about the “decrease of IL-1β-induced upregulation of miR-146a” value (NF-κB [1]; rat RECs, IL-1β 10 ng/ml, simultaneous Bay11-7082) of the same compound?
The value was about 81%.

And the “TNF-α-induced upregulation of miR-146a” value (NF-κB [1]; rat RECs, TNF-α 10 ng/ml, simultaneous Bay11-7082)?
The value was “completely blocked”.

And the “IL-1β-induced decrease of TEER” value ([3]; IL-1β 10 ng/ml)?
The value was “prevented”.

What does the source list for thrombin?
upregulation of miR-146a (NF-κB [2]; thrombin treatment): 122%; upregulation of miR-146b (NF-κB [2]; thrombin treatment): 92%; leukocyte adhesion (HRECs): significantly increased; induction of ICAM-1 (NF-κB activation; [5]): ~17 fold; induction of VCAM-1 (NF-κB activation; [5]): ~95 fold; NF-κB downstream genes ICAM1, MCP1 and VCAM1 (NF-κB activation; HRECs): significantly upregulated

“IL-1β: proinflammatory cytokine used at 10 ng/ml to activate NF-κB” was tested. Which “NF-κB activation (nuclear translocation of p65)” value (NF-κB p65) did it give?
The value was “activated NF-κb”.

What about the miR-146a expression (NF-κB [1]) of the same compound?
Its miR-146a expression is “significantly upregulated”.

And the TEER ([3]; IL-1β treatment)?
Its TEER is “significant decrease”.
